The results in this text go back to US20240140931A1, “TRICYCLIC COMPOUNDS AND USES THEREOF” (HUTCHMED LIMITED, priority 2021, published 2024).

Assay [1] deals with Human full-length SHP2 recombinant protein (Homo sapiens (Human), UniProt Q06124). The assay can be described thus: Assay of full-length SHP2 phosphatase activity. Format: biochemical. The note with it: DiFMUP substrate, with activating peptide. In outline:
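Full-length human SHP2 preincubated 30 min at RT with activating peptide and compound (1% DMSO final). DiFMUP substrate added, reaction 60 min at 25 °C in dark. Fluorescence at ex 355/em 460 nm; IC50 from 4-parameter fit against enzyme-free and vehicle controls.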

Assay [2] concerns pERK1/2 (Thr202/Tyr204) in Miapaca2 cells. As to the kind of experiment: Assay of intracellular pERK1/2 (Thr202/Tyr204) phosphorylation. Format: cell-based. Conditions: pERK1/2 (Thr202/Tyr204) HTRF. In short, it runs like this: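 Miapaca2 cells treated 2 h at 37 °C with compound (3-fold series; final DMSO 0.5%), then lysed 1 h. pERK1/2 (Thr202/Tyr204) detected by HTRF (665/615 nm ratio) after 2 h at 25 °C; normalized to cell-free lysis buffer and DMSO-treated cell controls; IC50 by four-parameter fit.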

Human full-length SHP2 recombinant protein, sequence (Q06124 whole entry): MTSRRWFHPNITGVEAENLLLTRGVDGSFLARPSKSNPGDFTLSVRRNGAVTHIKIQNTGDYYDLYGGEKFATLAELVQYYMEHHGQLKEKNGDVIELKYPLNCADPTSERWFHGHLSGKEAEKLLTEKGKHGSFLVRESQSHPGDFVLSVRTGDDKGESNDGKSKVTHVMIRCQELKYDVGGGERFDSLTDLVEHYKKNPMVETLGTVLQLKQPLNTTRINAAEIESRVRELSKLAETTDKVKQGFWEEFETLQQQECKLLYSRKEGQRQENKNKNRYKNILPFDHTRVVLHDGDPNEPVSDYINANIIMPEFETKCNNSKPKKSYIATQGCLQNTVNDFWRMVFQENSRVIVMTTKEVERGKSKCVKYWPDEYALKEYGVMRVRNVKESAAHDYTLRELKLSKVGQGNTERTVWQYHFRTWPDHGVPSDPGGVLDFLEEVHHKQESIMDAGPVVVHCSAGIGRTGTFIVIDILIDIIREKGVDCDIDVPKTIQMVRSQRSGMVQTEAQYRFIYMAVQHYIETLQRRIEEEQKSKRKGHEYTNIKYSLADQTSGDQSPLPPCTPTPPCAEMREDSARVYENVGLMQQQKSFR

Consider `C#Cc1ccc2c(c1)CC1(CCN(c3ncc(Sc4ccnc(NCCOC)c4Cl)c4nccn34)CC1)[C@@H]2N` [Compound 3], for which the IC50 in assay [1] worked out at 9 nM; in assay [2] (Homo sapiens, MIA PaCa-2, 2 h), 81 nM.

Take `C#Cc1ccc2c(c1)[C@@H](N)C1(CCN(c3cc(=O)n(-c4ccc(C#N)cc4Cl)c(C)n3)CC1)C2` [Compound 94]: the IC50 in assay [1] was 7 nM; in assay [2] (Homo sapiens, MIA PaCa-2, 2 h) it was 155 nM.

Turning to `C#Cc1ccc2c(c1)[C@@H](N)C1(CCN(c3cc(=O)n(-c4ccc(OC)c(Cl)c4Cl)c(C)n3)CC1)C2` [Compound 211], the 50% inhibitory concentration (IC50) in assay [1] stood at 17 nM; in assay [2] (Homo sapiens, MIA PaCa-2, 2 h), 161 nM.

With `COCC#Cc1ccc2c(c1)[C@@H](N)C1(CCN(c3cc(=O)n(-c4cccc(OC)c4Cl)c(C)n3)CC1)C2` [Compound 104], the IC50 in assay [1] came to 4 nM; in assay [2] (Homo sapiens, MIA PaCa-2, 2 h) it was 40 nM.

Regarding `C#Cc1ccc2c(c1)[C@@H](N)C1(CCN(c3cc(=O)n(-c4ccccc4Cl)c(C)n3)CC1)C2` [Compound 42, (S)-6-(1-amino-6-ethynyl-1,3-dihydrospiro[indene-2,4′-piperidin]-1′-yl)-3-(2-chlorophenyl)-2-methylpyrimidin-4(3H)-one], the IC50 in assay [1] was determined as 6 nM; in assay [2] (Homo sapiens, MIA PaCa-2, 2 h), 133 nM.

Take `Cc1nc(N2CCC3(CC2)Cc2ccc(C#CCO)cc2[C@H]3N)cc(=O)n1-c1cc(Cl)ccc1Cl` [Compound 85]: the concentration for half-maximal inhibition (IC50) stood at 50 nM in assay [1] and 785 nM in assay [2] (Homo sapiens, MIA PaCa-2, 2 h).

Consider `CCNC(=O)C#Cc1ccc2c(c1)[C@@H](N)C1(CCN(c3cnc(Sc4ccnc(N)c4Cl)c(C#N)n3)CC1)C2` [Compound 272], for which the IC50 in assay [1] came to 17 nM; in assay [2] (Homo sapiens, MIA PaCa-2, 2 h) it was 252 nM.

As for `C#Cc1ccc2c(c1)[C@@H](N)C1(CCN(c3cc(=O)n(-c4ccc(F)c(OC)c4)c(C)n3)CC1)C2` [Compound 29], the IC50 worked out at 25 nM in assay [1] and 489 nM in assay [2] (Homo sapiens, MIA PaCa-2, 2 h).

In the case of `C#Cc1ccc2c(c1)CC1(CCN(c3nc(N)c(Sc4ccnc(N)c4Cl)c(=O)n3C)CC1)[C@@H]2N` [Compound 5], the IC50 in assay [1] came to 2 nM; in assay [2] (Homo sapiens, MIA PaCa-2, 2 h), 23 nM.

Take `COCC#Cc1ccc2c(c1)[C@@H](N)C1(CCN(c3nc(C)n(-c4cccc(Cl)c4Cl)c(=O)c3F)CC1)C2` [Compound 169]: the IC50 turned out to be 6 nM in assay [1] and 125 nM in assay [2] (Homo sapiens, MIA PaCa-2, 2 h).

As to `C#Cc1ccc2c(c1)[C@@H](N)C1(CCN(c3cc(=O)n(-c4ccc(OCC)c(Cl)c4)c(C)n3)CC1)C2` [Compound 46], the IC50 in assay [1] came to 96 nM; in assay [2] (Homo sapiens, MIA PaCa-2, 2 h), 648 nM.

As for `C#Cc1ccc2c(c1)[C@@H](N)C1(CCN(c3cc(=O)n(-c4cccc(C(F)(F)F)c4Cl)c(C)n3)CC1)C2` (atropisomer, axis not shown) [Compound 119], the figures for the IC50 in assay [1] and in assay [2] (2 hours) were 178 nM and 698 nM, respectively.

`COCC#Cc1ccc2c(c1)[C@@H](N)C1(CCN(c3cc(=O)n(-c4ccc(F)c(Cl)c4Cl)c(C)n3)CC1)C2` (atropisomer, axis not shown) [Compound 124]: the IC50 in assay [1] came out at 1.3 nM; in assay [2] (2 hours), 15 nM.

In the case of `C#Cc1ccc2c(c1)[C@@H](N)C1(CCN(c3cc(=O)n(-c4ccc(F)c(F)c4Cl)c(C)n3)CC1)C2` (atropisomer, axis not shown) [Compound 113], the figures for the IC50 in assay [1] and in assay [2] (2 hours) were 2 nM and 14 nM, respectively.

Take `COCC#Cc1ccc2c(c1)[C@@H](N)C1(CCN(c3ncc(Sc4ccnc(C)n4)c4nccn34)CC1)C2` [Compound 132]: the concentration for half-maximal inhibition (IC50) in assay [1] worked out at 3 nM; in assay [2] (Homo sapiens, MIA PaCa-2, 2 h), 9 nM.

For `C#Cc1ccc2c(c1)[C@@H](N)C1(CCN(c3nc(C)n(-c4cccc(Cl)c4Cl)c(=O)c3C)CC1)C2` (atropisomer, axis not shown) [Compound 48], the half-inhibitory concentration (IC50) in assay [1] worked out at 63 nM; in assay [2] (2 hours), 231 nM.

With `C#Cc1ccc2c(c1)[C@@H](N)C1(CCN(c3cc(=O)n(-c4cccc(F)c4Cl)c(C)n3)CC1)C2` [Compound 61], the 50% inhibitory concentration (IC50) in assay [1] is 3 nM; in assay [2] (Homo sapiens, MIA PaCa-2, 2 h) it was 78 nM.

On to `COCC#Cc1ccc2c(c1)[C@@H](N)C1(CCN(c3cc(=O)n(-c4ccc(C#N)cc4Cl)c(C)n3)CC1)C2` [Compound 93], for which the IC50 came out at 16 nM in assay [1] and 301 nM in assay [2] (Homo sapiens, MIA PaCa-2, 2 h).

Consider `C#Cc1ccc2c(c1)CC1(CCN(c3nc(N)c(-c4cn(C)c5ncccc45)c4nccn34)CC1)[C@@H]2N` [Compound 25], for which the IC50 in assay [1] worked out at 12 nM; in assay [2] (Homo sapiens, MIA PaCa-2, 2 h), 151 nM.

With `C#Cc1ccc2c(c1)[C@@H](N)C1(CCN(c3cc(=O)n(-c4ccc(F)c(Cl)c4Cl)c(C)n3)CC1)C2` [Compound 69], the IC50 in assay [1] worked out at 5 nM; in assay [2] (2 hours), 66 nM.

For the compound `C#Cc1ccc2c(c1)[C@@H](N)C1(CCN(c3cc(=O)n(-c4cccc(Cl)c4Cl)c(C(F)(F)F)n3)CC1)C2` [Compound 121], the IC50 is above 1000 nM in assay [1] and above 1000 nM in assay [2] (Homo sapiens, MIA PaCa-2, 2 h).

In the case of `CNC(=O)C#Cc1ccc2c(c1)[C@@H](N)C1(CCN(c3ncc(Sc4cccnc4C(F)(F)F)nn3)CC1)C2` [Compound 246], the IC50 amounted to 133 nM in assay [1] and 688 nM in assay [2] (Homo sapiens, MIA PaCa-2, 2 h).

As for `CC#Cc1ccc2c(c1)[C@@H](N)C1(CCN(c3ncc(Sc4ccnc(N)c4Cl)c(N)n3)CC1)C2` [Compound 215], the IC50 in assay [1] was 25 nM; in assay [2] (Homo sapiens, MIA PaCa-2, 2 h), 167 nM.

Consider `C#Cc1ccc2c(c1)[C@@H](N)C1(CCN(c3ncc(N4CCCc5ncccc54)c(=O)n3C)CC1)C2` [Compound 287], for which the IC50 in assay [1] came out at 12 nM; in assay [2] (Homo sapiens, MIA PaCa-2, 2 h), 140 nM.

For `Cc1nc(N2CCC3(CC2)Cc2ccc(C#CCN(C)C)cc2[C@H]3N)cc(=O)n1-c1ccc(F)c(Cl)c1Cl` [Compound 70], the IC50 in assay [1] stood at 2 nM; in assay [2] (Homo sapiens, MIA PaCa-2, 2 h), 141 nM.

Take `COCC#Cc1ccc2c(c1)[C@@H](N)C1(CCN(c3cc(=O)n(-c4ccc(F)c(OC)c4F)c(C)n3)CC1)C2` [Compound 82]: the IC50 in assay [1] was found to be 2 nM; in assay [2] (Homo sapiens, MIA PaCa-2, 2 h), 43 nM.

For the compound `C#Cc1ccc2c(c1)[C@@H](N)C1(CCN(c3cc(=O)n(-c4ccc(F)c(Cl)c4Cl)c(C)n3)CC1)C2` (atropisomer, axis not shown) [Compound 108], the half-inhibitory concentration (IC50) in assay [1] came out at 1 nM; in assay [2] (2 hours), 7 nM.

For the compound `C#Cc1ccc2c(c1)[C@@H](N)C1(CCN(c3nc(C)c(Sc4ccnc(N)c4Cl)n4cncc34)CC1)C2` [Compound 180], the IC50 came out at 13 nM in assay [1] and 251 nM in assay [2] (Homo sapiens, MIA PaCa-2, 2 h).

With `C#Cc1ccc2c(c1)CC1(CCN(c3ncc(Sc4ccnc(NCCO)c4Cl)c4nccn34)CC1)[C@@H]2N` [Compound 7], the IC50 turned out to be 10 nM in assay [1] and 28 nM in assay [2] (Homo sapiens, MIA PaCa-2, 2 h).

Turning to `NC(=O)C#Cc1ccc2c(c1)[C@@H](N)C1(CCN(c3ncc(Sc4ccnc(N)c4Cl)c4nccn34)CC1)C2` [Compound 128], the IC50 was 0.9 nM in assay [1] and 15 nM in assay [2] (Homo sapiens, MIA PaCa-2, 2 h).

With `C#Cc1ccc2c(c1)[C@@H](N)C1(CCN(c3cnc(Sc4ccnc(N)n4)c(N)n3)CC1)C2` [Compound 126], the IC50 stood at 2 nM in assay [1] and 42 nM in assay [2] (Homo sapiens, MIA PaCa-2, 2 h).

For the compound `COCC#Cc1ccc2c(c1)[C@@H](N)C1(CCN(c3nc(C)c(Sc4ccnc(N)n4)c4nccn34)CC1)C2` [Compound 117], the IC50 in assay [1] amounted to 2 nM; in assay [2] (Homo sapiens, MIA PaCa-2, 2 h), 24 nM.

`C#Cc1ccc2c(c1)[C@@H](N)C1(CCN(c3nc(C)n(-c4ccc(F)cc4Cl)c(=O)c3C)CC1)C2` (atropisomer, axis not shown) [Compound 102]: the half-inhibitory concentration (IC50) in assay [1] was 2 nM; in assay [2] (2 hours), 12 nM.

Turning to `COCCSc1ccc2c(c1)[C@@H](N)C1(CCN(c3cc(=O)n(-c4cccc(Cl)c4Cl)c(C)n3)CC1)C2` [Compound 99], the IC50 was 2 nM in assay [1] and 40 nM in assay [2] (Homo sapiens, MIA PaCa-2, 2 h).

For `C#Cc1ccc2c(c1)[C@@H](N)C1(CCN(c3cc(=O)n(-c4cccc(Cl)c4F)c(C)n3)CC1)C2` [Compound 16], the values for the IC50 in assay [1] and in assay [2] (2 hours) were 4 nM and 34 nM, respectively.

For the compound `COCC#Cc1ccc2c(c1)[C@@H](N)C1(CCN(c3ncc(Sc4ccnc(N)n4)c4nccn34)CC1)C2` [Compound 100], the 50% inhibitory concentration (IC50) in assay [1] was found to be 2 nM; in assay [2] (Homo sapiens, MIA PaCa-2, 2 h) it was 12 nM.

For the compound `Cc1nc(N2CCC3(CC2)Cc2ccc(C#CCO)cc2[C@H]3N)cc(=O)n1-c1cccc(Cl)c1Cl` [Compound 32], the IC50 was 1 nM in assay [1] and 6 nM in assay [2] (Homo sapiens, MIA PaCa-2, 2 h).

Consider `CC#Cc1ccc2c(c1)[C@@H](N)C1(CCN(c3cnc(Sc4ccnc(N)n4)c(N)n3)CC1)C2` [Compound 134], for which the IC50 in assay [1] was found to be 1.4 nM; in assay [2] (Homo sapiens, MIA PaCa-2, 2 h), 5 nM.

With `C#Cc1ccc2c(c1)[C@@H](N)C1(CCN(c3cc(=O)n(-c4ccc(C#N)c(O)c4F)c(C)n3)CC1)C2` [Compound 185], the IC50 in assay [1] was 14 nM; in assay [2] (Homo sapiens, MIA PaCa-2, 2 h), above 1000 nM.

With `Cc1c(N2CCC3(CC2)Cc2ccc(C#CCN(C)C)cc2[C@H]3N)nc(C)n(-c2cccc(Cl)c2Cl)c1=O` (atropisomer, axis not shown) [Compound 51], the IC50 in assay [1] was 1 nM; in assay [2] (2 hours), 21 nM.

Turning to `CC#Cc1ccc2c(c1)[C@@H](N)C1(CCN(c3cc(=O)n(-c4ccc(F)c(Cl)c4Cl)c(C)n3)CC1)C2` (atropisomer, axis not shown) [Compound 220], the IC50 is 317 nM in assay [1] and above 1000 nM in assay [2] (2 hours).

For `C#Cc1ccc2c(c1)[C@@H](N)C1(CCN(c3cnc(Sc4ccnc(N)c4Cl)c(N)n3)CC1)C2` [Compound 95], the IC50 turned out to be 3 nM in assay [1] and 2 nM in assay [2] (Homo sapiens, MIA PaCa-2, 2 h).

For `C#Cc1ccc2c(c1)CC1(CCN(c3cnc(Sc4ccnc(N)c4Cl)c(N)n3)CC1)[C@@H]2N` [Compound 2], the 50% inhibitory concentration (IC50) is 5 nM in assay [1] and 23 nM in assay [2] (Homo sapiens, MIA PaCa-2, 2 h).

As for `C#Cc1ccc2c(c1)[C@@H](N)C1(CCN(c3cc(=O)n(-c4ccc(F)c(OC)c4F)c(C)n3)CC1)C2` [Compound 78], the IC50 in assay [1] worked out at 3 nM; in assay [2] (2 hours) it was 43 nM.

As a reminder, the IC50 is the concentration that gives 50% inhibition.
